Reference: patent US20080274987A1, “Novel alpha glucosidase activator, pulicarside 1” (HEJ Research Institute, priority 2006, published 2008)
Where two headings read alike, the source gives them in different places.

Legend:
[1] = biological target: α-glucosidase (E.C.3.2.1.20); assay: α-Glucosidase enzyme inhibition assay (PNP-G substrate, spectrophotometric); type: biochemical, Saccharomyces species
Method: (§1) α-Glucosidase (E.C.3.2.1.20) enzyme inhibition assay was performed according to the slightly modified method of Matsui et al. α-glucosidase (E.C.3.2.1.20) from Saccharomyces species, purchased from Wako Pure Chemical Industries Ltd. (Wako 076-02841). The enzyme inhibition was measured spectrophotometrically at pH 6.9 and at 37° C. using 0.7 mM p nitrophenyl-α-D-glucopyranoside (PNP-G) as a substrate and 500 m units/mL enzyme, in 50 mM sodium phosphate buffer containing 100 mM NaCl. […] The increment in absorption at 400 nm, due to the hydrolysis of PNP-G by α-glucosidase, was monitored continuously on microplate spectrophotometer (Spectra Max Molecular Devices, USA).
[T. Matsui, C. Yoshimoto, K. Osajima, T. Oki, and Y. Osajima. Biosci. Biotech. Biochem., 1996, 60, 2019].

α-glucosidase = assay: Rate of α-glucosidase enzyme reaction as a function of incubation time and concentration of Compound 1; type: biochemical, Saccharomyces species
Method: as §1
Several unique observations were made during the studies conducted on Compound 1 activity. For example, it was observed that the enzyme generally looses its activity during the operational period. We have a set of experiment to see how the enzyme lost its activity with almost all activity gone within one hour. (Table 2).
As a result we conclude that the activity of Compound 1 is concentration dependent. The mechanism postulated here includes enhancement of stability of the enzyme to react with the substrate, which is not observed in negative control in the absence of this compound 1. From the structures it is clearly evidenced that the methylene-dioxy ring and as well as the sugar molecule is responsible for the enzyme activation. […] So the COO— group is playing a crucial role for the inhibitory effect on the enzyme and the gugar molecule and methylene-dioxy ring is responsible for the activation of the enzyme.

[2] = against α-glucosidase, pH 6.9, 37° C., 0.7 mM PNP-G, read-out: IC50 ± SEM
[3] = unit inferred, read-out: IC50 (inhibitory effect on the enzyme)

Row | IC50 [1, 2] | IC50 [1, 3] | IC50 ± SEM ([1]; against α-glucosidase, pH 6.9, 37° C., 0.7 mM PNP-G) | Rate of enzyme reaction (μM of alpha-glucose from the p-nitrophenyl at 400 nm) (α-glucosidase; 0.05 mM Compound 1, incubation 4 min) | Rate of enzyme reaction (μM of alpha-glucose from the p-nitrophenyl at 400 nm) (α-glucosidase; 0.05 mM Compound 1, incubation 24 min) | Rate of enzyme reaction (μM of alpha-glucose from the p-nitrophenyl at 400 nm) (α-glucosidase; 0.05 mM Compound 1, incubation 45 min) | Rate of enzyme reaction (μM of alpha-glucose from the p-nitrophenyl at 400 nm) (α-glucosidase; 0.05 mM Compound 1, incubation 66 min) | Rate of enzyme reaction (μM of alpha-glucose from the p-nitrophenyl at 400 nm) (α-glucosidase; 0.10 mM Compound 1, incubation 4 min) | Rate of enzyme reaction (μM of alpha-glucose from the p-nitrophenyl at 400 nm) (α-glucosidase; 0.10 mM Compound 1, incubation 24 min) | Rate of enzyme reaction (μM of alpha-glucose from the p-nitrophenyl at 400 nm) (α-glucosidase; 0.10 mM Compound 1, incubation 45 min) | Rate of enzyme reaction (μM of alpha-glucose from the p-nitrophenyl at 400 nm) (α-glucosidase; 0.10 mM Compound 1, incubation 66 min) | Rate of enzyme reaction (μM of alpha-glucose from the p-nitrophenyl at 400 nm) (α-glucosidase; 0.20 mM Compound 1, incubation 4 min) | Rate of enzyme reaction (μM of alpha-glucose from the p-nitrophenyl at 400 nm) (α-glucosidase; 0.20 mM Compound 1, incubation 24 min) | Rate of enzyme reaction (μM of alpha-glucose from the p-nitrophenyl at 400 nm) (α-glucosidase; 0.20 mM Compound 1, incubation 45 min) | Rate of enzyme reaction (μM of alpha-glucose from the p-nitrophenyl at 400 nm) (α-glucosidase; 0.20 mM Compound 1, incubation 66 min) | Rate of enzyme reaction (μM of alpha-glucose from the p-nitrophenyl at 400 nm) (α-glucosidase; 0.40 mM Compound 1, incubation 4 min) | Rate of enzyme reaction (μM of alpha-glucose from the p-nitrophenyl at 400 nm) (α-glucosidase; 0.40 mM Compound 1, incubation 24 min) | Rate of enzyme reaction (μM of alpha-glucose from the p-nitrophenyl at 400 nm) (α-glucosidase; 0.40 mM Compound 1, incubation 45 min) | Rate of enzyme reaction (μM of alpha-glucose from the p-nitrophenyl at 400 nm) (α-glucosidase; 0.40 mM Compound 1, incubation 66 min) | Effect on α-glucosidase enzymatic activity as compared to the negative control (α-glucosidase; at all the concentrations and time intervals) | Compound
1 | 62.2 µM | 62.2 ± 0.008 µM | – | – | – | – | – | – | – | – | – | – | – | – | – | – | – | – | – | – | C[C@@]12CCC[C@@](C)(C(=O)O)[C@H]1CC[C@@]13C[C@@H](CC[C@H]12)[C@@](O)(CO)C3 (single isomer, unassigned; ent-16) [ent-16,17-dihydroxy-(−)-kauran-19-oic acid]
2 | – | – | Enhancer | 18.61 µM | 8.7 µM | 3.85 µM | 1.45 µM | 19.94 µM | 10.38 µM | 4.64 µM | 1.62 µM | 20.89 µM | 18.27 µM | 13.11 µM | 10.13 µM | 21.15 µM | 19.68 µM | 14.8 µM | 15.01 µM | enhanced the enzymatic activity | CC1(C)OCC2(C[C@@]34CC[C@H]5[C@@](C)(CCC[C@@]5(C)C(=O)O[C@@H]5O[C@H](CO)[C@@H](O)[C@H](O)[C@H]5O)[C@@H]3CC[C@@H]2C4)O1 (single isomer, unassigned; ent-16) [Pulicarside (1), β-D-glucopyranosyl ent-16,17-acetonyl-(−)-kauran-19-oate]
3 | 407 ± 20 µM | 407 ± 20 µM | – | – | – | – | – | – | – | – | – | – | – | – | – | – | – | – | – | – | C[C@@]12CCC[C@@](C)(C(=O)O[C@@H]3O[C@H](CO)[C@@H](O)[C@H](O)[C@H]3O)[C@H]1CC[C@@]13C[C@@H](CC[C@H]12)[C@@](O)(CO)C3 [Paniculoside IV (2), paniculoside IV]
